Some results are limits rather than exact numbers.

A short description of data set [1]: ANTS/DPX dye leakage assay and equi-activity partitioning analysis. Particulars: for K (mole fraction partitioning coefficient) / RB ([P]B/[L]) / [P]W (peptide concentration in the water phase): fit of Equation (4), [L] = (1−20) mM, [P] = (0.05−2) mM, HBS. The procedure: All hydrated samples were equilibrated for 1 h at 40°C followed by 5 freeze-and-thaw cycles using liquid N2 and intermittent vortex-mixing. Large unilamellar vesicles (LUVs) were obtained by 31 extrusions with a handheld mini extruder (Avanti Polar Lipids, Alabaster, AL) using a 100 nm pore diameter polycarbonate filter. Vesicle size and polydispersity were determined via DLS using a Zetasizer NANO ZSP (Malvern Panalytical, Malvern, UK). ANTS/DPX-containing vesicles were separated from free ANTS/DPX by exclusion chromatography using a column filled with SephadexTM G-75 (Amersham Biosciences, Little Chalfont, UK) fine gel swollen in iso-osmotic HBS. Phospholipid concentrations for all samples were determined by phosphate analysis.
Dye leakage experiments were performed combining previously reported protocols ([20], [27]). In brief, the dependencies of ANTS/DPX leakage on lipid and peptide concentration were determined by first incubating lipid vesicles ([L] = 1, 4, 10, and 20 mM) with peptides [[P] = (0.025−2) mM] at 37°C for 1 h using a gently rocking shaker (Eppendorf Thermomixer C, Hamburg, Germany). Similar time protocols were applied previously ([27]) and are justified here based on separate time-resolved leakage experiments (Supplementary Figure 3) and Trp-fluorescence measurements (Figure 3), showing that a quasi steady state has been reached after 1 h. Before measurements, lipid/peptide solutions were diluted with HBS to a lipid concentration of 50 μM, and every measurement was repeated at least twice. Vesicle size was checked after each incubation period using DLS. Samples were excited at λ= 360 nm, and the intensity of the fluorescence emission peak at λ= 530 nm, Ip, was recorded with a slit width of 10 nm for both excitation and emission monochromators. Measurements were performed in quartz cuvettes in 2 ml of the iso-osmotic buffer on a Cary Eclipse Fluorescence Spectrophotometer (Varian/Agilent Technologies, Palo Alto, CA). The percentage of leakage, E%, was calculated according to the relation
(1) E%=Ip-Imin/Imax-Imin,
where Imin is the initial fluorescence without peptide, and Imax is the fluorescence corresponding to 100% leakage determined through the addition of a 1 vol% solution of Triton X-100. The initial, monotonic increase of E% values with increasing [P] was interpolated with a sigmoidal function. This enabled us to obtain peptide and lipid concentrations leading to a specific E% value, which can in turn be used to calculate the partitioning parameters (see section 2.3.1).
(4) [P]=RB[W]/K︸[P]W+RB[L]︸[P]B=RB([W]/K+[L]),

Data set [2] can be described thus: solubility of the peptide in buffer (stock preparation). The data set is classed as physicochemical. Particulars: PBS / HBS stock solutions; acetic acid up to 0.3% and DMSO up to 3% vol/vol added. As for the experimental part: Peptide stock solutions of LF11-215 and LF11-324 were prepared in PBS solution for bacteria and HBS solution for lipid vesicles. […] AMP concentrations of the stock solutions were determined by comparing against the absorption band of the aromatic amino acids with the spectrophotometer NanoDrop ND-1000 (Thermo Fisher Scientific, Waltham, MA). Peptide stock solutions were stored in silanized glass tubes until use.

The mark [3] stands for this setting: POPE/POPG LUVs, leakage 10%, 1 h at 37°C.
Setting [4] is: POPE/POPG LUVs, leakage 15%, 1 h at 37°C.
Setting [5] is: POPE/POPG/TOCL LUVs, leakage 10%, 1 h at 37°C.
Setting [6] is: POPE/POPG/TOCL LUVs, leakage 20%, 1 h at 37°C.
The mark [7] stands for this setting: POPE/POPG/TOCL LUVs, leakage 40%, 1 h at 37°C.

Regarding “H-FWRIRIRR-NH2 [LF11-215, H-FWRIRIRR-NH2]”, the “maximum amount of partitioned AMPs” value in data set [1] (PE-containing systems, [L] ≃20 mM) is on record as less than 80%. In data set [1] (POPE/POPG LUVs [L] = 50 µM, [P] = 0.5 µM, converging after 25 min), the “ANTS/DPX dye efflux, time-resolved” value is approximately 5%. Further, the “K (mole fraction partitioning coefficient)” value in data set [1] (setting [3]) is 1.37 ± 0.16 ×10^4; in data set [1] (setting [4]) it was 0.75 ± 0.15 ×10^4; in data set [1] (setting [5]), 1.7 ± 0.8 ×10^4; in data set [1] (setting [6]) it was 1.5 ± 0.3 ×10^4; in data set [1] (setting [7]) it was 1.5 ± 0.4 ×10^4. In addition, the “RB ([P]B/[L])” value in data set [1] (setting [3]) was 9.8 ± 0.4 ×10^−3; in data set [1] (setting [4]) it was 10.7 ± 1.0 ×10^−3; in data set [1] (setting [5]) it was 5.6 ± 0.7 ×10^−3; in data set [1] (setting [6]), 7.2 ± 0.5 ×10^−3; in data set [1] (setting [7]) it was 9.6 ± 0.9 ×10^−3. Further, the “[P]W (peptide concentration in the water phase)” value in data set [1] (setting [3]) was determined as 0.040 ± 0.006 mM; in data set [1] (setting [4]), 0.08 ± 0.02 mM; in data set [1] (setting [5]) it was 0.018 ± 0.010 mM; in data set [1] (setting [6]), 0.026 ± 0.007 mM; in data set [1] (setting [7]), 0.036 ± 0.012 mM. Also, in data set [1] (POPE/POPG vesicles, 1 h at 37°C, all [P] and [L] tested), the “total ANTS/DPX efflux” value is listed as not above 40%.
In the case of “H-PFFWRIRIRR-NH2 [LF11-324, H-PFFWRIRIRR-NH2]”, in data set [2], the solubility in buffer entry is given as “weak solubility”.

Values taken from article PMC8757871, “Bridging the Antimicrobial Activity of Two Lactoferricin Derivatives in E. coli and Lipid-Only Membranes” (Frontiers in Medical Technology, 2021).
